What all share (assay): Phosphomimetic ProP-PD selection with NGS
In test [1] the target is T1, Scribble PDZ1 (Homo sapiens, UniProt Q14160).
T1 construct: human Scribble PDZ1 aa 719–829 in; made in house; host or cells: E. coli BL21 Gold (DE3)
It counts as binding. Conditions: for Mean fraction #NGS counts mimetic peptide / total count selection / Mean fraction #NGS counts wt peptide / total counts selection: bait Scribble PDZ1, mean of selections 1-3. The method, then: (§1) Phage selections were carried out for four rounds following a protocol by Huang and Sidhu (Huang & Sidhu, 2011) with minor modifications. Non‐specific binding phage was removed by pre‐selections against immobilized GST throughout the selection. The selections against the (pre‐)phosphorylated wild‐type library were performed in 50 mM HEPES (pH 7.4) and 150 mM NaCl (HBS) following the same procedure after pre‐phosphorylation of the library.
(§2) • Immobilize proteins (15 μg in 100 μl PBS) in a 96‐well MaxiSorp microtiter plate (NUNC) overnight at 4°C. • Start a 2YT culture of E. coli Omnimax supplemented with 100 μg/ml tetracycline to retain the F pilus epitope. • Block the wells with 200 μl 0.5% BSA in PBS for 2 h at 4°C. • Precipitate naïve phage library (10^11 cfu per selection) or amplified phage pool from the previous round of selection by adding one‐fifth the volume of PEG/NaCl. • Incubate on ice for 10 min, and pellet precipitated phage by centrifugation at 5,300 g for 15 min. Resuspend the phage pellet in 100 μl PBS per selection. • Add 100 μl of phage solution to the GST‐coated pre‐selection wells and incubate for 1 h. • Transfer the phage solution to the immobilized target proteins and allow it to bind for 2 h at 8°C. • Wash the plate four times with 200 μl cold wash buffer (PBS, 0.05% Tween‐20). • Elute bound phage by incubation with 100 μl log phase (0.6–0.8 OD600) E. coli Omnimax for 30 min at 37°C with shaking (200 RPM). • Add 10^12 cfu/ml M13K07 helper phage for hyperinfection of the bacteria and incubate as above for 45 min. • Transfer the bacterial culture to 10 ml 2YT supplemented with 50 μg/ml carbenicillin, 25 μg/ml kanamycin, and 300 μM IPTG and incubate overnight at 37°C while shaking. • Perform phage pool ELISA to monitor the progress of the selection as described previously (Huang & Sidhu, 2011).
(§3) The naïve library and the enriched phage pools of the third day of selection were amplified and barcoded by PCR and analyzed by NGS as described elsewhere (McLaughlin & Sidhu, 2013; Ivarsson et al, 2014). The reads were demultiplexed using the barcode sequences and filtered by discarding sequences with a Phred quality score under 30. Sequences were mapped to the original library using Bowtie (Langmead et al, 2009) with two mismatches between reads and library sequence. Nucleotide mutations leading to amino acid substitutions were subsequently removed. Cutoff values of NGS counts were assigned for each pool. PWMs were generated based on the remaining peptides (aligned on the C‐termini) using WebLogo (Crooks et al, 2004).
(§4) However, there was no significant correlation of the actual read counts (selection “strength”) and the initial representation in the library, reflecting the strong selection during phage display (wt+mimetic: P‐value: 0.49, ρ = −0.08, mimetic only: P‐value: 0.069, ρ = −0.2, wt only: P‐value: 0.12, ρ = 0.17). Consequently, the amount of reads for each binder after phage display is not a function of the amount of input reads in the naïve library and no modeling based on the input library frequencies to score the interactions is necessary. To allow for comparison between replicate selections, we used the fraction of NGS reads within a certain set, instead of the absolute number of NGS reads, as the absolute numbers differ between different NGS batches.

The subject of test [2] is Scribble PDZ3. It counts as binding, human. The following applies: bait Scribble PDZ3. The method, then: as §1, §2, §3, §4
The target in test [3] is T2, DLG1 PDZ2 (Homo sapiens, UniProt Q12959).
T2 construct: human DLG1 PDZ2 aa 311–407 in a modified pRSET vector 40; made in house; host or cells: E. coli BL21 Gold (DE3)
T2 sequence (Q12959 311-407): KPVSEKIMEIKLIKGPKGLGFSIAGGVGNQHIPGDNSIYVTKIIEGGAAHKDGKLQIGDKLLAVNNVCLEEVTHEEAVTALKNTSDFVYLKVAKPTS
It counts as binding. The following applies: mean of selections 1-3, bait DLG1 PDZ2. The method, then:
as §1, §2, §3, §4

[4] abbreviates: mean of selections 1-3, wild type peptide.
Setting [5] is: mean of selections 1-3, phosphomimetic peptide.

T1 sequence (Q14160 719-829): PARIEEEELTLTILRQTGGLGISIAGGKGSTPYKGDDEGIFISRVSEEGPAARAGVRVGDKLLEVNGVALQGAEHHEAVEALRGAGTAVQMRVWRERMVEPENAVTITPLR

As to PIHELETSL, the “Mean fraction #NGS counts mimetic peptide / total count selection” value in test [1] and in test [2] (mean over selections 1-3) was 0 in each case. As to RATSWYSPY, in test [3], the “Mean fraction #NGS counts wt peptide / total counts selection” value is listed as 0.002312. For the substance GSGGRQSVV, the “Mean fraction #NGS counts wt peptide / total counts selection” value in test [3] (wild type peptide) is on record as 0.003121. Turning to ISYRREEAI, the “Mean fraction #NGS counts mimetic peptide / total count selection” value in test [2] (mean over selections 1-3) was 0. Regarding RPHTNETSL, the “Mean fraction #NGS counts wt peptide / total counts selection” value in test [1] is 0.0005328; in test [2] (mean over selections 1-3), 0.0004079. As for VKRLLSSVF, the “Mean fraction #NGS counts wt peptide / total counts selection” value in test [1] worked out at 0.

Turning to DKESFLTWL, the figures for the “Mean fraction #NGS counts wt peptide / total counts selection” value in test [1] and in test [2] (mean over selections 1-3) were 0.000274 and 0.01024, respectively.

As to EIDLWETAL, the “Mean fraction #NGS counts mimetic peptide / total count selection” value in test [2] (mean over selections 1-3) is reported as 0.0004512. Turning to PLHELETSL, the “Mean fraction #NGS counts mimetic peptide / total count selection” value in test [1] and in test [2] (mean over selections 1-3) was 0 in each case. For the substance PLHSLETSL, the “Mean fraction #NGS counts wt peptide / total counts selection” value was found to be 0.0001571 in test [1], 0.0002079 in test [2] (setting [4]) and 0.0002261 in test [2] (mean over selections 1-3). Take KYVDAETSL: the “Mean fraction #NGS counts wt peptide / total counts selection” value in test [2] (setting [4]) turned out to be 0.0001259. On to HFESLESEV, for which the “Mean fraction #NGS counts mimetic peptide / total count selection” value in test [3] came to 0. With PLHSLETEL, the figures for the “Mean fraction #NGS counts mimetic peptide / total count selection” value in test [1] and in test [2] (mean over selections 1-3) were 0.01704 and 0.01661, respectively. As for LRLQSETEV, in test [3], the “Mean fraction #NGS counts mimetic peptide / total count selection” value was 7.62e-5. On to ERLEYETEL, for which the “Mean fraction #NGS counts mimetic peptide / total count selection” value in test [2] (setting [5]) is on record as 3.548e-5. Take HFSSLESEV: the “Mean fraction #NGS counts wt peptide / total counts selection” value in test [3] is on record as 5.084e-5. On to NSTNMESSL, for which the “Mean fraction #NGS counts wt peptide / total counts selection” value in test [2] (setting [4]) was 0. In the case of ISWLAFSVL, the “Mean fraction #NGS counts wt peptide / total counts selection” value in test [1] is listed as 0.

For the substance HEIKQETAV, the “Mean fraction #NGS counts mimetic peptide / total count selection” value in test [3] was 0.0002182.

As for SATSVHTSV, in test [3] (wild type peptide), the “Mean fraction #NGS counts wt peptide / total counts selection” value came out at 0.0005933. PIHSLEESL: the “Mean fraction #NGS counts mimetic peptide / total count selection” value in test [1] was found to be 0; in test [2] (mean over selections 1-3), 7.932e-6. MRLQEETSV: the “Mean fraction #NGS counts mimetic peptide / total count selection” value in test [3] came to 0.0002419. On to LAPNIISQL, for which the “Mean fraction #NGS counts wt peptide / total counts selection” value in test [1] is on record as 0.000119. With PLHELETEL, the “Mean fraction #NGS counts mimetic peptide / total count selection” value in test [2] (setting [5]) is listed as 0.00248. As to TMFLRETEL‐coo‐, the “occurrence in NGS of the selection relative to wild‐type counterpart” value in test [1] (phage-displayed peptide, phosphomimetic ProP‐PD selection against Scribble PDZ1) is given as “three times more”. Regarding KKRMVESPL, the “Mean fraction #NGS counts wt peptide / total counts selection” value in test [2] (mean over selections 1-3) came out at 0.000138. For DSEILETVV, in test [3], the “Mean fraction #NGS counts mimetic peptide / total count selection” value is reported as 0. Turning to VTSERETNI, the “Mean fraction #NGS counts wt peptide / total counts selection” value in test [2] (mean over selections 1-3) is 0.001424. For the substance HEKVFESAL, the “Mean fraction #NGS counts mimetic peptide / total count selection” value is listed as 0.0004614 in test [1] and 0.07851 in test [2] (mean over selections 1-3).

In the case of SPTVHVTEL, the “Mean fraction #NGS counts wt peptide / total counts selection” value in test [1] is on record as 0.0001068; in test [2] (mean over selections 1-3), 5.538e-5. As to VRKLPETTL, in test [2] (mean over selections 1-3), the “Mean fraction #NGS counts mimetic peptide / total count selection” value is given as 0.002417. For the substance HEKVFTSAL, the entries for the “Mean fraction #NGS counts wt peptide / total counts selection” value in test [1] and in test [2] (mean over selections 1-3) were 0 and 0.0001136, respectively. Take PLHSLEESL: the “Mean fraction #NGS counts mimetic peptide / total count selection” value in test [1] and in test [2] (mean over selections 1-3) was 0 in each case. For the substance PEHVLQTQI, the “Mean fraction #NGS counts mimetic peptide / total count selection” value in test [1] stood at 0.0001068.

In the case of KLSEIESDV, the “Mean fraction #NGS counts mimetic peptide / total count selection” value came to 0 in test [3] and 6.057e-6 in test [2] (mean over selections 1-3). As to ERLEYETTL, the “Mean fraction #NGS counts wt peptide / total counts selection” value in test [2] (setting [4]) and in test [2] (mean over selections 1-3) was 0.0004529 in each case. Turning to RSSMKPGFV, the “Mean fraction #NGS counts wt peptide / total counts selection” value in test [3] (wild type peptide) is listed as 0.02056.
